Columns and labels:
4T1 cells = assay: In vitro immunogenic cell death assay; format: cell-based; conditions: 24 h
Protocol: 4T1 cells were incubated with different concentrations of Dox at 37° C. for 24 h. Cells without drug treatment were used as controls. Cells were washed with PBS for three times, collected, and stained with FITC-conjugated anti-CD47, Alex Fluor 647-conjugated anti-calreticulin, and fixable viability dye efluor780 for 20 min prior to FACS analyses.

[1] = Release of Dox-iRGD or Dox from pore-forming alginate gels; format: physicochemical; conditions: in vitro, DMEM 37 °C
4T1 tumors = assay: Tumor penetration study of Dox-iRGD; format: in vivo, Balb/c mice; conditions: released from peritumorally injected gels with GM-CSF, confocal imaging
Protocol: 4T1 cells (0.6 million) in HBSS buffer were subcutaneously injected into the right flank of Balb/c mice. After 5 days, pore-forming alginate gels loaded with GM-CSF (3 μg)+Dox-iRGD (50 μg in Dox-equivalent) or GM-CSF+Dox-iRDG or GM-CSF+Dox were injected next to the tumors. After 48 h, gels and tumors were harvested and frozen with O.C.T. compound, and sectioned with a thickness of 8 μm. To determine the tumor penetration of drugs, tissue sections were stained with DAPI for 10 min and imaged under a confocal microscope.

[2] = In vitro encapsulation and release of biomolecules from the cryogel vaccine; format: physicochemical
Protocol: To determine the incorporation efficiency and release kinetics of Cpg-odn, GM-CSF and antigen from cryogel vaccines, gels were incubated in lml of sterile PBS at 37° C. with shaking. Media was replaced periodically. Micro-BCA (Pierce Biotechnology) was used to quantify total protein content. GM-CSF and Cpg-odn released in the supernatant were detected by ELISA (Invitrogen) and OliGreen assay (Invitrogen), respectively. The amount of antigen was determined by subtracting total protein content from the amount of GM-CSF quantified by ELISA.

Compound | expression of CD47 (4T1 cells) | cell-surface calreticulin (4T1 cells; 0-100 nM) | released from pore-forming alginate gel within 6 h [1] [%] | released from pore-forming alginate gel within 24 h [1] | tumor penetration / accumulation in tumor tissues (4T1 tumors) | released over the first 5 days in vitro ([2]; from cryogel) [%] | encapsulation efficiency ([2]; in MA-PEG/MA-alginate vaccine cryogel) [%] | burst release of the loaded amount ([2]; in vitro, from cryogel)
COc1cccc2c1C(=O)c1c(O)c3c(c(O)c1C2=O)C[C@@](O)(C(=O)CO)C[C@@H]3O[C@H]1C[C@H](N)[C@H](O)[C@H](C)O1 [Dox, doxorubicin] | increased expression of the anti-phagocytic marker CD47 | upregulated cell-surface calreticulin | ~30 | more than 60% | negligible accumulation |  |  | 
GM-CSF: cytokine granulocyte-macrophage colony-stimulating factor (PeproTech) |  |  |  |  |  | 85 | 87 | about 8%
